Results on 10 compounds are retold here after paper PMC8963254, “Effects of Lysine N-ζ-Methylation in Ultrashort Tetrabasic Lipopeptides (UTBLPs) on the Potentiation of Rifampicin, Novobiocin, and Niclosamide in Gram-Negative Bacteria” (Antibiotics, 2022).

What all share (test): microbe, parasite or virus in culture
Experiment [1] has as its system P. aeruginosa PA259-96196. The class given is cell-based, Pseudomonas aeruginosa. The conditions noted are these: P. aeruginosa 259-96196; for MIC: Pseudomonas aeruginosa, PA25996196, 18 h, read-out: MICs of various antibiotics. As to the method: (§1) The in vitro antibacterial activity of the UTBLPs was assessed against wild-type and clinically isolated bacterial strains. To obtain the MIC of the compounds, the microbroth dilution susceptibility assay was performed according to the Clinical and Laboratory Standards Institute (CLSI, Wayne, PA, USA) guidelines and as previously described. Briefly, the compounds at varying concentrations were incubated with bacterial inoculum (5 × 10^5 CFU/mL final concentration) at 37 °C for 18 h. Growth in the form of turbidity was confirmed using an EMax Plus microplate reader (Molecular Devices, San Jose, CA, USA) at 590 nm.

The test system of experiment [2] is P. aeruginosa PA262-101856. The class given is cell-based, Pseudomonas aeruginosa. The following applies: P. aeruginosa 262-101856; for MIC: Pseudomonas aeruginosa, PA262101856, 18 h, read-out: MICs of various antibiotics. As to the method: as §1
A further experiment has as its system A. baumannii AB027. The class given is cell-based, Acinetobacter baumannii. The following applies: A. baumannii AB027; for MIC: Acinetobacter baumannii, 18 h, read-out: MICs of various antibiotics. As to the method: as §1
A further experiment has as its system A. baumannii AB92247. Format: cell-based, Acinetobacter baumannii. The conditions noted are these: A. baumannii 92247; for MIC: Acinetobacter baumannii, AB92247, 18 h, read-out: MICs of various antibiotics. As to the method: as §1
For another experiment, the system named is E. coli 94393. The class given is cell-based, Escherichia coli. The conditions noted are these: E. coli 94393 (mcr-1 +); for MIC: Escherichia coli, 18 h, read-out: MICs of various antibiotics. How it is done: as §1
The subject of another experiment is E. coli 94474. Format: cell-based, Escherichia coli. The following applies: E. coli 94474 (mcr-1 +); for MIC: Escherichia coli, 18 h, read-out: MICs of various antibiotics. How it is done: as §1
The next experiment relates to E. cloacae 118564. Format: cell-based, Enterobacter cloacae. The following applies: E. cloacae 118564; for MIC: Enterobacter cloacae, 18 h, read-out: MICs of various antibiotics. How it is done:
as §1

A further experiment has as its system K. pneumoniae 113250. Format: cell-based, Klebsiella pneumoniae. The conditions noted are these: K. pneumoniae 113250; for MIC: Klebsiella pneumoniae, 18 h, read-out: MICs of various antibiotics. As to the method:
as §1

Converted amounts (≈) assume the structure as drawn.

Regarding `NCC[C@H](O)C(=O)N[C@@H]1C[C@H](N)[C@@H](O[C@H]2O[C@H](CN)[C@@H](O)[C@H](O)[C@H]2O)[C@H](O)[C@H]1O[C@H]1O[C@H](CO)[C@@H](O)[C@H](N)[C@H]1O` [AMK, amikacin], the MIC in experiment [1] is above 64 µg/mL; in experiment [2], above 64 µg/mL; in the experiment on A. baumannii AB027, above 64 µg/mL; in the experiment on A. baumannii AB92247, below 1 µg/mL; with E. coli 94393, 2 µg/mL (≈ 3.42 µM); in the experiment on E. coli 94474, 2 µg/mL (≈ 3.42 µM). Also, the results for the MIC in the experiment on E. cloacae 118564 and with K. pneumoniae 113250 were 2 µg/mL (≈ 3.42 µM) and at most 1 µg/mL, respectively.

Regarding `CNC(C)C1CCC(N)C(OC2C(N)CC(N)C(OC3OCC(C)(O)C(NC)C3O)C2O)O1` (centres unmarked) [GEN, gentamicin], the MIC in experiment [1] is above 32 µg/mL; in experiment [2], above 32 µg/mL; in the experiment with A. baumannii AB027, 32 µg/mL (≈ 67 µM); in the experiment on E. coli 94393 it was at most 0.5 µg/mL; in the experiment on E. coli 94474, 16 µg/mL (≈ 33.5 µM); in the experiment on E. cloacae 118564, 1 µg/mL (≈ 2.09 µM). For the same compound, the MIC with K. pneumoniae 113250 is at most 0.5 µg/mL.

As to `CN(C)c1ccc(O)c2c1C[C@H]1C[C@H]3[C@H](N(C)C)C(O)=C(C(N)=O)C(=O)[C@@]3(O)C(O)=C1C2=O` [MIN, minocycline], the MIC in experiment [1] stood at 32 µg/mL (≈ 69.9 µM); in experiment [2], 64 µg/mL (≈ 140 µM); with A. baumannii AB027, 0.25 µg/mL (≈ 0.546 µM); in the experiment on A. baumannii AB92247, 0.125 µg/mL (≈ 0.273 µM); in the experiment with E. coli 94393, 2 µg/mL (≈ 4.37 µM); in the experiment with E. coli 94474 it was 64 µg/mL (≈ 140 µM). In the experiment on K. pneumoniae 113250, the MIC came out at 2 µg/mL (≈ 4.37 µM).

On to `CO/N=C(\C(=O)N[C@@H]1C(=O)N2C(C(=O)[O-])=C(C[N+]3(C)CCCC3)CS[C@H]12)c1csc(N)n1` [CPM, cefepime], for which the MIC was above 64 µg/mL in experiment [1]; 32 µg/mL (≈ 66.6 µM) in experiment [2]; above 128 µg/mL in the experiment with A. baumannii AB027; 4 µg/mL (≈ 8.32 µM) in the experiment on A. baumannii AB92247; at most 0.25 µg/mL in the experiment on E. coli 94393; at most 0.25 µg/mL in the experiment on E. coli 94474. Further, the MIC was 0.25 µg/mL (≈ 0.52 µM) in the experiment on E. cloacae 118564 and 1 µg/mL (≈ 2.08 µM) in the experiment with K. pneumoniae 113250.

Regarding `CN(C)c1cc(NC(=O)CNC(C)(C)C)c(O)c2c1C[C@H]1C[C@H]3[C@H](N(C)C)C(O)=C(C(N)=O)C(=O)[C@@]3(O)C(O)=C1C2=O` [TGC, tigecycline], the MIC came to 32 µg/mL (≈ 54.6 µM) in experiment [1]; 32 µg/mL (≈ 54.6 µM) in experiment [2]; 4 µg/mL (≈ 6.83 µM) with A. baumannii AB027; 0.25 µg/mL (≈ 0.427 µM) with A. baumannii AB92247; 0.25 µg/mL (≈ 0.427 µM) in the experiment on E. coli 94393; 1 µg/mL (≈ 1.71 µM) in the experiment on E. coli 94474.

Consider `Cc1nnc(SCC2=C(C(=O)O)N3C(=O)[C@@H](NC(=O)Cn4cnnn4)[C@H]3SC2)s1` [CFZ, cefazolin], for which the MIC was above 128 µg/mL in experiment [1]; above 128 µg/mL in experiment [2]; above 128 µg/mL in the experiment on A. baumannii AB027; 128 µg/mL (≈ 282 µM) in the experiment with A. baumannii AB92247; 1 µg/mL (≈ 2.2 µM) in the experiment on E. coli 94393; 4 µg/mL (≈ 8.8 µM) in the experiment on E. coli 94474. Besides, the MIC in the experiment on E. cloacae 118564 is above 128 µg/mL; in the experiment on K. pneumoniae 113250 it was 1 µg/mL (≈ 2.2 µM).

With `CO[C@@]1(NC(=O)Cc2cccs2)C(=O)N2C(C(=O)O)=C(COC(N)=O)CS[C@@H]21` [FOX, cefoxitin], the MIC in experiment [1] is above 32 µg/mL; in experiment [2] it was above 32 µg/mL; in the experiment with A. baumannii AB92247, 32 µg/mL (≈ 74.9 µM); in the experiment with E. coli 94393, 4 µg/mL (≈ 9.36 µM); in the experiment on E. coli 94474 it was 16 µg/mL (≈ 37.4 µM); in the experiment with E. cloacae 118564, above 32 µg/mL. Moreover, the MIC in the experiment with K. pneumoniae 113250 was determined as 1 µg/mL (≈ 2.34 µM).

As to `C[C@@H](O)[C@H]1C(=O)N2C(C(=O)O)=C(S[C@@H]3CN[C@H](C(=O)N(C)C)C3)[C@H](C)[C@H]12` [MER, meropenem], the MIC was 1020 µg/mL (≈ 2670 µM) in experiment [1]; 32 µg/mL (≈ 83.4 µM) in experiment [2]; 16 µg/mL (≈ 41.7 µM) in the experiment with A. baumannii AB027; 4 µg/mL (≈ 10.4 µM) in the experiment on A. baumannii AB92247; at most 0.03 µg/mL in the experiment on E. coli 94393; at most 0.03 µg/mL with E. coli 94474. The MIC is 0.12 µg/mL (≈ 0.313 µM) in the experiment with E. cloacae 118564 and at most 0.03 µg/mL in the experiment on K. pneumoniae 113250.

On to colistin [CST], for which the “MICs of various antibiotics” value in experiment [1] came to 1 µg/mL; in experiment [2] it was 1 µg/mL; against A. baumannii AB027, 0.25 µg/mL; against A. baumannii AB92247, 4 µg/mL; against E. coli 94393 it was 4 µg/mL; with E. coli 94474 it was 16 µg/mL. The “MICs of various antibiotics” value against E. cloacae 118564 and against K. pneumoniae 113250 was above 16 µg/mL in each case.

Turning to `COc1c(N2C[C@@H]3CCCN[C@@H]3C2)c(F)cc2c(=O)c(C(=O)O)cn(C3CC3)c12` [MOX, moxifloxacin], the MIC is above 16 µg/mL in experiment [1]; above 16 µg/mL in experiment [2]; 8 µg/mL (≈ 19.9 µM) in the experiment on A. baumannii AB027; 1 µg/mL (≈ 2.49 µM) in the experiment with E. coli 94393; 16 µg/mL (≈ 39.9 µM) in the experiment with E. coli 94474; 0.12 µg/mL (≈ 0.299 µM) with E. cloacae 118564. In addition, in the experiment with K. pneumoniae 113250, the MIC was at most 0.06 µg/mL.
